From ChEMBL document CHEMBL5512685, “Discovery of a Promising CBP/p300 Degrader XYD129 for the Treatment of Acute Myeloid Leukemia” (J Med Chem, 2024)
Active and inactive are the calls of the source. The calls are words filed in the database; no cut-off is given here.

Columns and labels:
[1] = target: T1, Histone acetyltransferase p300 (Homo sapiens, UniProt Q09472); experiment: Inhibition of p300 (unknown origin) using histone H3 (1 to 21 residues) as substrate preincubated for 15 mins followed by substrate and [3H]Ac-CoA addition and measured after 60 mins by liquid scintillation counting analysis
CREB-binding protein [2] = target: T2, CREB-binding protein (Homo sapiens, UniProt Q92793); experiment: Inhibition of CBP (unknown origin) using histone H3 (1 to 21 residues) as substrate preincubated for 15 mins followed by substrate and [3H]Ac-CoA addition and measured after 60 mins by liquid scintillation counting analysis
[3] = Antiproliferative activity against human MOLM16 cells assessed as inhibition of cell growth incubated for 72 hrs by celltiter glo luminescence analysis; assay type: functional, cell-based, MOLM-16; settings: MOLM16, 72 h
Protein cereblon = Protein cereblon (Homo sapiens, UniProt Q96SW2); experiment: Inhibition of biotinylated thalidomide binding to CRBN (40 to 442 residues) (unknown origin) incubated for 1 hrs by HTRF assay
[4] = target: T1, Histone acetyltransferase p300; experiment: Inhibition of C-terminal biotinylated tetra-acetylated histone peptide H4 binding to His6-fused human p300 bromodomain (A1040 to G1161 residues) incubated for 1 hrs by HTRF assay
[5] = Cytotoxicity against human HL7702 cells assessed as inhibition of cell growth incubated for 72 hrs by celltiter glo luminescence analysis; assay type: toxicity, cell-based; settings: HL7702 (L02) cells
CREB-binding protein [6] = target: T2, CREB-binding protein; experiment: Inhibition of C-terminal biotinylated tetra-acetylated histone peptide H4 binding to His6-fused human CBP bromodomain (R1081 to G1197 residues) incubated for 1 hrs by HTRF assay
MV4-11 [7] = experiment: Antiproliferative activity against human MV4-11 cells assessed as inhibition of cell growth incubated for 120 hrs by celltiter glo luminescence analysis; assay type: functional, cell-based; settings: MV4-11, 120 h
KG-1 = experiment: Antiproliferative activity against human KG-1 cells assessed as inhibition of cell growth incubated for 72 hrs by celltiter glo luminescence analysis; assay type: functional, cell-based; settings: KG-1, 72 h
MV4-11 [8] = experiment: Potency index, ratio of Y08207 IC50 to test compound IC50 for antiproliferative activity against human MV4-11 cells assessed as inhibition of cell growth incubated for 120 hrs by celltiter glo luminescence analysis; assay type: functional
[9] = target: T3, Protein cereblon/CREB-binding protein (Homo sapiens) (UniProt Q92793+Q96SW2); experiment: PROTAC activity at CRBN/CBP in human MOLM16 cells assessed as induction of CBP degradation incubated for 24 hrs by Western blot analysis; assay type: cell-based; settings: dose 0-1000 nM
[10] = target: T4, Protein cereblon/Histone acetyltransferase p300 (Homo sapiens) (UniProt Q09472+Q96SW2); experiment: PROTAC activity at CRBN/p300 in human MOLM16 cells assessed as induction of p300 degradation incubated for 24 hrs by Western blot analysis; assay type: cell-based; settings: dose 0-1000 nM
[11] = target: T4, Protein cereblon/Histone acetyltransferase p300 (Homo sapiens); experiment: PROTAC activity at CRBN/p300 in human MOLM16 cells assessed as induction of p300 degradation at 1000 nM incubated for 24 hrs by Western blot analysis relative to control; assay type: cell-based
[12] = target: T3, Protein cereblon/CREB-binding protein (Homo sapiens); experiment: PROTAC activity at CRBN/CBP in human MOLM16 cells assessed as induction of CBP degradation at 1000 nM incubated for 24 hrs by Western blot analysis relative to control; assay type: cell-based
[13] = Toxicity in NOD-SCID mouse xenografted with human MOLM16 cells assessed as reduction in body weight at 30 mg/kg, ip administered once daily for 2 weeks; assay type: organism-based; settings: in vivo, 336 h
[14] = target: T4, Protein cereblon/Histone acetyltransferase p300 (Homo sapiens); experiment: PROTAC activity at CRBN/p300 in human MOLM16 cells assessed as induction of p300 degradation at 500 nM by Western blot analysis; assay type: cell-based; settings: time 0-24 hrs, TDE = time-dependent effect
[15] = target: T3, Protein cereblon/CREB-binding protein (Homo sapiens); experiment: PROTAC activity at CRBN/CBP in human MOLM16 cells assessed as reduction in CBP protein level at 500 nM pretreated with MG-132 for 2 hrs followed by compound treatment and measured after 18 hrs by Western blot analysis; assay type: cell-based
Mus musculus = experiment: In vivo PROTAC activity at CRBN/p300 in NOD-SCID mouse xenografted with human MOLM16 cells assessed as reduction in p300 level in tumor at 30 mg/kg, ip administered once daily for 2 weeks and measured 1 day post last dose by Western blot analysis; assay type: functional, organism-based; settings: time 15.0 day
[16] = target: T3, Protein cereblon/CREB-binding protein (Homo sapiens); experiment: PROTAC activity at CRBN/CBP in human MOLM16 cells assessed as reduction in CBP protein level at 500 nM measured after 18 hrs by Western blot analysis; assay type: cell-based
[17] = Antitumor activity against human MOLM16 cells xenografted in NOD-SCID mouse assessed as tumor growth inhibition at 30 mg/kg, ip administered once daily for 2 weeks and measured every other day by caliper method relative to control; assay type: functional, MOLM-16; settings: MOLM16, 336 h, read-out: TGI
[18] = Toxicity in NOD-SCID mouse xenografted with human MOLM16 cells assessed as pathological changes in heart at 30 mg/kg, ip administered once daily for 2 weeks by H and E staining based analysis; assay type: organism-based; settings: in vivo, 336 h
[19] = Toxicity in NOD-SCID mouse xenografted with human MOLM16 cells assessed as pathological changes in liver at 30 mg/kg, ip administered once daily for 2 weeks by H and E staining based analysis; assay type: organism-based; settings: in vivo, 336 h
[20] = Toxicity in NOD-SCID mouse xenografted with human MOLM16 cells assessed as pathological changes in kidney at 30 mg/kg, ip administered once daily for 2 weeks by H and E staining based analysis; assay type: organism-based; settings: in vivo, 336 h
[21] = Toxicity in NOD-SCID mouse xenografted with human MOLM16 cells assessed as pathological changes in lung at 30 mg/kg, ip administered once daily for 2 weeks by H and E staining based analysis; assay type: organism-based; settings: in vivo, 336 h
[22] = Toxicity in NOD-SCID mouse xenografted with human MOLM16 cells assessed as pathological changes in spleen at 30 mg/kg, ip administered once daily for 2 weeks by H and E staining based analysis; assay type: organism-based; settings: in vivo, 336 h
[23] = target: T3, Protein cereblon/CREB-binding protein (Homo sapiens); experiment: Binding affinity to biotinylated CRBN (40 to 442 residues) (unknown origin)/His6-fused human CBP bromodomain (R1081 to G1197 residues) assessed as ternary complex formation incubated for 1.5 hrs by Alphascreen assay; assay type: protein assay
[24] = target: T3, Protein cereblon/CREB-binding protein (Homo sapiens); experiment: PROTAC activity at CRBN/CBP in human MOLM16 cells assessed as induction of CBP degradation at 500 nM by Western blot analysis; assay type: cell-based; settings: time 0-24 hrs, TDE = time-dependent effect
[25] = target: T4, Protein cereblon/Histone acetyltransferase p300 (Homo sapiens); experiment: PROTAC activity at CRBN/p300 in human MOLM16 cells assessed as reduction in p300 protein level at 500 nM pretreated with pomalidomide for 2 hrs followed by compound treatment and measured after 18 hrs by Western blot analysis; assay type: cell-based
[26] = target: T3, Protein cereblon/CREB-binding protein (Homo sapiens); experiment: PROTAC activity at CRBN/CBP in human MOLM16 cells assessed as induction of CBP degradation at 333 nM incubated for 24 hrs by Western blot analysis relative to control; assay type: cell-based
[27] = target: T4, Protein cereblon/Histone acetyltransferase p300 (Homo sapiens); experiment: PROTAC activity at CRBN/p300 in human MOLM16 cells assessed as reduction in p300 protein level at 500 nM measured after 18 hrs by Western blot analysis; assay type: cell-based
[28] = target: T3, Protein cereblon/CREB-binding protein (Homo sapiens); experiment: In vivo PROTAC activity at CRBN/CBP in NOD-SCID mouse xenografted with human MOLM16 cells assessed as reduction in CBP level in tumor at 30 mg/kg, ip administered once daily for 2 weeks and measured 1 day post last dose by Western blot analysis; assay type: functional, organism-based; settings: time 15.0 day
[29] = target: T3, Protein cereblon/CREB-binding protein (Homo sapiens); experiment: PROTAC activity at CRBN/CBP in human MOLM16 cells assessed as reduction in CBP protein level at 500 nM pretreated with pomalidomide for 2 hrs followed by compound treatment and measured after 18 hrs by Western blot analysis; assay type: cell-based
[30] = target: T4, Protein cereblon/Histone acetyltransferase p300 (Homo sapiens); experiment: PROTAC activity at CRBN/p300 in human MOLM16 cells assessed as reduction in p300 protein level at 500 nM pretreated with MG-132 for 2 hrs followed by compound treatment and measured after 18 hrs by Western blot analysis; assay type: cell-based
[31] = target: T4, Protein cereblon/Histone acetyltransferase p300 (Homo sapiens); experiment: PROTAC activity at CRBN/p300 in human MOLM16 cells assessed as induction of p300 degradation at 333 nM incubated for 24 hrs by Western blot analysis relative to control; assay type: cell-based
[32] = target: T4, Protein cereblon/Histone acetyltransferase p300 (Homo sapiens); experiment: Binding affinity to biotinylated CRBN (40 to 442 residues) (unknown origin)/His6-fused human p300 bromodomain (A1040 to G1161 residues) assessed as ternary complex formation incubated for 1.5 hrs by Alphascreen assay; assay type: protein assay

CNC(=O)Nc1ccc2c(c1)CC[C@@]21OC(=O)N(CC(=O)N2Cc3cc(F)ccc3OC[C@H]2C2CC2)C1=O
IC50 [1]: 0.5 nM
IC50 (CREB-binding protein [2]): 11 nM

CC(=O)c1cc(C(=O)Nc2cc(CO)cc(-c3cnn(C)c3)c2F)c2cc(OCCCCCC(=O)NCCCc3cccc4c3C(=O)N(C3CCC(=O)NC3=O)C4=O)ccn12 (centres undefined)
IC50 [3]: 54 nM
IC50 (Protein cereblon): 790 nM
IC50 [4]: 46 nM
IC50 at 72 h [5]: > 100000 nM
IC50 (CREB-binding protein [6]): 68 nM
IC50 (MV4-11 [7]): 460 nM
IC50 (KG-1): 4770 nM
Ratio IC50 (MV4-11 [8]): ~8

CC(=O)c1cc(C(=O)Nc2cc(CO)cc(-c3cnn(C)c3)c2F)c2cc(O)ccn12
IC50 [3]: 13400 nM
IC50 (Protein cereblon): > 100000 nM
IC50 [4]: 7 nM
IC50 at 72 h [5]: 38300 nM
IC50 (CREB-binding protein [6]): 6 nM
IC50 (MV4-11 [7]): 6370 nM
IC50 (KG-1): 11600 nM

CC(=O)c1cc(C(=O)Nc2cc(CO)cc(-c3cnn(C)c3)c2F)c2cc(OCCCC(=O)NCCNc3cccc4c3C(=O)N(C3CCC(=O)NC3=O)C4=O)ccn12 (centres undefined)
IC50 [3]: 21 nM
IC50 (Protein cereblon): 1100 nM
IC50 [4]: 77 nM
Activity [9]: Dose-Dependent Effect
Activity [10]: Dose-Dependent Effect
Activity [11]: 100%
IC50 at 72 h [5]: > 100000 nM
IC50 (CREB-binding protein [6]): 73 nM
Activity [12]: 100%
IC50 (MV4-11 [7]): 420 nM
IC50 (KG-1): 3950 nM

CC(=O)c1cc(C(=O)Nc2cc(CO)cc(-c3cnn(C)c3)c2F)c2cc(OCC(=O)NCCCCNc3cccc4c3C(=O)N(C3CCC(=O)NC3=O)C4=O)ccn12 (centres undefined)
IC50 [3]: 7 nM
Activity [13]: Non-Toxic
IC50 (Protein cereblon): 180 nM
Activity [14]: Tde
Activity [15]: inactive
Activity (Mus musculus): Active
Activity [16]: Active
IC50 [4]: 30 nM
inhibition in vivo at 30 mg/kg [17]: 60%
Activity [9]: Dose-Dependent Effect
Activity [10]: Dose-Dependent Effect
Activity [18]: Non-Toxic
Activity [19]: Non-Toxic
Activity [20]: Non-Toxic
IC50 at 72 h [5]: > 100000 nM
IC50 (CREB-binding protein [6]): 21 nM
Activity [21]: Non-Toxic
Activity [22]: Non-Toxic
Activity [23]: Active
Activity [24]: Tde
IC50 (MV4-11 [7]): 44 nM
Activity [25]: inactive
IC50 (KG-1): 570 nM
Activity [26]: 100%
Activity [27]: Active
Activity [28]: Active
Ratio IC50 (MV4-11 [8]): 140
Activity [29]: inactive
Activity [30]: inactive
Activity [31]: 100%
Activity [32]: Active

CO[C@H]1CC[C@H](n2c([C@@H]3CCCC(=O)N3c3ccc(F)c(F)c3)nc3cc(-c4c(C)noc4C)ccc32)CC1 [INOBRODIB]
IC50 [3]: 370 nM
IC50 (Protein cereblon): > 100000 nM
IC50 at 72 h [5]: 20000 nM
IC50 (MV4-11 [7]): 14 nM
IC50 (KG-1): 17000 nM

CC(=O)c1cc(C(=O)Nc2cc(CO)cc(-c3cnn(C)c3)c2F)c2cc(OCCCCC(=O)NCCCc3cccc4c3C(=O)N(C3CCC(=O)NC3=O)C4=O)ccn12 (centres undefined)
IC50 (Protein cereblon): 470 nM
IC50 [4]: 22 nM
IC50 (CREB-binding protein [6]): 20 nM
IC50 (MV4-11 [7]): 750 nM
Ratio IC50 (MV4-11 [8]): ~8
